These results are taken from patent US11168078B2, “Sulfoximine, sulfonimidamide, sulfondiimine and diimidosulfonamide compounds as inhibitors of indoleamine 2,3-dioxygenase” (Shanghai Fochon Pharmaceutical Co., Ltd., priority 2016, dated 2021).

The structures appear in SMILES notation. pIC50: −log10 of the molar value.

Data set [1] deals with T1, IDO (Homo sapiens, UniProt P14902).
T1 construct: endogenous in cells; host or cells: HeLa cells stimulated with recombinant human interferon-gamma
Put plainly: IDO Cell-Based LC/MS Assay. The following applies: Hela cells, 100 ng/mL recombinant human interferon-gamma, 20 hours, LC/MS readout. From the text: IDO Cell-Based LC/MS Assay
Materials: RPMI 1640 (phenol red free) (Invitrogen Cat. No. 11835030), Fetal Bovine Serum (Invitrogen Cat. No. 10099141), Penicillin-Streptomycin (Invitrogen Gibco Cat. No. 15140-122), recombinant human interferon-gamma (R&D system, Cat. No. 285-IF-100), 5% (w/v) trichloroacetic acid (Alfa Aesar Cat. No. All 156), DMSO (Sigma, Cat. No. D2650), 96 wells_compound plate (Axygen, Cat. No. WIPP02280), 96 wells_assay plate (Greiner, Cat. No. 655090)
The concentrations of test compounds varied from 5 μM to 0.76 nM with 3-fold dilution, 9 points, in duplicates.
Hela cells were seeded at 40,000 cells per well with RPMI/phenol red free media containing 10% FBS in a 96-well tissue culture plate. After adding compound to cells, 100 ng/mL of recombinant human interferon-gamma was added to activate IDO signaling. The cells were incubated for 20 hours in 37° C. incubator with 5% CO2. Compound treatment was stopped by adding 5% trichloroacetic acid. Subsequently, the cell plate was further incubated at 50° C. for 30 minutes. After precipitation, the supernatant was collected and measured by triple quadrupole mass spectrometer (AB Sciex 4000), coupled with HPLC Shimadzu EC 20 AD and autosampler CTC PAL. Curves are fit by XLFIT5 as % inhibition vs. log [compound concentration] using a 4 parameters logistic model 205.
(§1) Select compounds prepared as described above were assayed according to the biological procedures described herein.

Data set [2] can be described thus: Rat PK. In kind it is in vivo. As to conditions: po, male SD rats, 5 mg/kg p.o., suspended in 0.5% methylcellulose in water, plasma. The protocol:
Each test compounds was suspended in 0.5% methylcellulose in water.
Grouping male SD rats was administered with test compound at a dose of 5 mg/kg by oral. After administering, blood samples were collected at time points of 0.50, 1.0, 2.0, 4.0, 6.0, 8.0 and 24.0 h. Standard curve was plotted based on concentrations of the samples in a suitable range, and the concentration of test compounds in plasma samples were determined by using LC-MS/MS. Pharmacokinetic parameters were calculated according to plasma concentration-time curve by Phoenix WinNonLin 6.1 software.

The target in data set [3] is T1, IDO. Put plainly: IDO Cell-Based NEK Green Assay (NFK Green, N-formyl kynurenine level). As to conditions: Hela cells, 1 mM L-Tryptophan, 100 ng/mL recombinant human interferon-gamma, 2 days, NFK Green fluorescence. Here is the method:
IDO Cell-Based NEK Green Assay
Materials: RPMI 1640 (phenol red free) (Invitrogen Cat. No. 11835030), Fetal Bovine Serum (Invitrogen Cat. No. 10099141), Penicillin-Streptomycin (Invitrogen Gibco Cat. No. 15140-122), Cellular assay kit (NTRC, Cat. No. NTRC-GSCell-1K), DMSO (Sigma, Cat. No. D2650), 384 wells_compound plate (Greiner, Cat. No. 781280), 384 wells_assay plate (Greiner, Cat. No. 781091)
The concentrations of test compounds varied from 5 μM to 0.76 nM with 3-fold dilution, 10 points, in duplicates.
Hela cells were seeded at 8,000 cells per well with RPMI/phenol red free media containing 10% FBS in a 384-well tissue culture plate. Mixture of compounds and 1 mM L-Tryptophan were added to cells; and then the recombinant human interferon-gamma was added at the final concentration of 100 ng/mL to activate IDO signaling. The cells were incubated for 2 days in 37° C. incubator with 5% CO2. After that, NFK Green was used to detect the N-formyl kynurenine level by following the commercial kit instruction. The fluorescent signal was measured by Envision plate Reader (excitation, 400/25; emission, 510/20). Curves are fit by XLFIT5 as % inhibition vs. log [compound concentration] using a 4 parameters logistic model 205.
as §1

Broadly, the pIC50 is the negative decadic logarithm of the IC50, by convention in mol/L. Usually AUC(0-inf) stands for total exposure, with the tail of the curve extrapolated. In general, AUC(0-t) refers to the area under the concentration-time curve up to a stated or last time point. A low value points to less exposure. Broadly, the Cmax is the highest concentration seen after dosing. A word on the half-life: it is how long it takes for the measured level to halve.

T1 sequence (P14902 whole entry): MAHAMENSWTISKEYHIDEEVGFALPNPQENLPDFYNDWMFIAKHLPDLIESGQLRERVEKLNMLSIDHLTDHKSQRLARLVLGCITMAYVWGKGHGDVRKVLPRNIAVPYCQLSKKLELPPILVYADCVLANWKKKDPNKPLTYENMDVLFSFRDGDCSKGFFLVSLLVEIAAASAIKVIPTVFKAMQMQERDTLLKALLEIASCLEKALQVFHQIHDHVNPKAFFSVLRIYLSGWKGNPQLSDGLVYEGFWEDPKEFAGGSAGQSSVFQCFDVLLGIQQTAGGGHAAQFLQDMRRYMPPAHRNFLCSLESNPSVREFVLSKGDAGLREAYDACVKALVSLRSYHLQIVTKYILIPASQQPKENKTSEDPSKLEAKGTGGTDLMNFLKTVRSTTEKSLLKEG

As for `CCS(=N)(=O)NCCNc1nonc1C(=NO)Nc1ccc(F)c(Br)c1` (stereo not shown) [Example 7, (Z)—N-(3-bromo-4-fluorophenyl)-4-((2-(ethylsulfonoimidamido)ethyl)amino)-N′-hydroxy-1,2,5-oxadiazole-3-carboximidamide], in data set [1], the pIC50 was 8.18. In data set [2], this molecule had an AUC(0-inf) of 1450 ng·h/mL, an AUC(0-t) of 1440 ng·h/mL, a Cmax of 496 ng/mL and a half-life of 3.47 h.
Take `NS(=O)(=O)NCCNc1nonc1C(=NO)Nc1ccc(F)c(Br)c1` [Reference Compound 1, (Z)—N-(3-bromo-4-fluorophenyl)-N′-hydroxy-4-((2-(sulfamoylamino)ethyl)amino)-1,2,5-oxadiazole-3-carboximidamide, reference compound]: in data set [2], the AUC(0-inf) is 924 ng·h/mL, the AUC(0-t) was determined as 880 ng·h/mL, the highest level (Cmax) was 169 ng/mL and the half-life was 2.48 h.
With `CN=S(C)(=O)NCCNc1nonc1C(=NO)Nc1ccc(F)c(Br)c1` (stereo not shown) [Example 11, (Z)—N-(3-bromo-4-fluorophenyl)-N′-hydroxy-4-((2-(N′-methylmethylsulfonoamidimidamido)ethyl)amino)-1,2,5-oxadiazole-3-carboximidamide], in data set [1], the pIC50 was 7.40.
On the same count and under the same terms, the result for `O=S1(=NCCNc2nonc2/C(=N/O)Nc2ccc(F)c(Br)c2)CCOCC1` [Example 3, (Z)—N-(3-bromo-4-fluorophenyl)-N′-hydroxy-4-((2-((4-oxido-1,4λ^6-oxathian-4-ylidene)amino)ethyl)amino)-1,2,5-oxadiazole-3-carboximidamide] reads 6.82; that for `CCS(=O)(CC)=NCCNc1nonc1/C(=N/O)Nc1ccc(F)c(Br)c1` [Example 2, (Z)—N-(3-bromo-4-fluorophenyl)-4-((2-((diethyl(oxo)-λ^6-sulfanylidene)amino)ethyl)amino)-N′-hydroxy-1,2,5-oxadiazole-3-carboximidamide], 6.57; that for `O=S1(=NCCNc2nonc2/C(=N/O)Nc2ccc(F)c(Br)c2)CCCCC1` [Example 4, (Z)—N-(3-bromo-4-fluorophenyl)-N′-hydroxy-4-((2-((1-oxidotetrahydro-2H-1λ^6-thiopyran-1-ylidene)amino)ethyl)amino)-1,2,5-oxadiazole-3-carboximidamide], 6.32.
`CS(C)(=O)=NCCNc1nonc1/C(=N/O)Nc1ccc(F)c(Cl)c1` [Example 28, (Z)-N-(3-chloro-4-fluorophenyl)-4-((2-((dimethyl(oxo)-λ^6-sulfanylidene)amino)ethyl)amino)-N′-hydroxy-1,2,5-oxadiazole-3-carboximidamide]: the pIC50 in data set [3] was 7.84. In addition, in data set [2], the AUC(0-inf) was determined as 1120 ng·h/mL, the AUC(0-t) amounted to 1100 ng·h/mL, the concentration peaked (Cmax) at 469 ng/mL and the half-life is 1.19 h.
As for `CS(=N)(=O)NCCNc1nonc1/C(=N/O)Nc1ccc(F)c(C#N)c1` (stereo not shown) [Example 13, (Z)—N-(3-cyano-4-fluorophenyl)-N′-hydroxy-4-((2-(methylsulfonoimidamido)-ethyl)amino)-1,2,5-oxadiazole-3-carboximidamide], the pIC50 in data set [1] was 6.51.
Turning to `CS(=N)(=O)NCCNc1nonc1/C(=N/O)Nc1cccc(C(F)(F)F)c1` (stereo not shown) [Example 15, (Z)—N′-hydroxy-4-((2-(methylsulfonoamidimidamido)ethyl)amino)-N-(3-(trifluoromethyl)phenyl)-1,2,5-oxadiazole-3-carboximidamide], the pIC50 in data set [1] was 7.27.
Regarding `CS(C)(=O)=NCCNc1nonc1/C(=N/O)Nc1ccc(F)c(Br)c1` [Example 1, (Z)—N-(3-bromo-4-fluorophenyl)-4-((2-((dimethyl(oxo)-λ^6-sulfanylidene)amino)ethyl)amino)-N′-hydroxy-1,2,5-oxadiazole-3-carboximidamide], the pIC50 in data set [1] is 7.27. In data set [2], this molecule had an AUC(0-inf) of 4030 ng·h/mL, an AUC(0-t) of 3840 ng·h/mL, a Cmax of 1500 ng/mL and a half-life of 3.83 h.
